Measurements: US10004732B2 (Novartis AG, priority 2014, dated 2018)

What was measured:
PI 3-kinase alpha [1] = biological target: T1, PI 3-kinase alpha (Homo sapiens, UniProt P42336); test: Kinase Glo Luminescent Kinase Assay (Kglo), assay A; type: biochemical; details: read-out: Assay A PI3Kα IC50
Target sequence in this assay (P42336 whole entry): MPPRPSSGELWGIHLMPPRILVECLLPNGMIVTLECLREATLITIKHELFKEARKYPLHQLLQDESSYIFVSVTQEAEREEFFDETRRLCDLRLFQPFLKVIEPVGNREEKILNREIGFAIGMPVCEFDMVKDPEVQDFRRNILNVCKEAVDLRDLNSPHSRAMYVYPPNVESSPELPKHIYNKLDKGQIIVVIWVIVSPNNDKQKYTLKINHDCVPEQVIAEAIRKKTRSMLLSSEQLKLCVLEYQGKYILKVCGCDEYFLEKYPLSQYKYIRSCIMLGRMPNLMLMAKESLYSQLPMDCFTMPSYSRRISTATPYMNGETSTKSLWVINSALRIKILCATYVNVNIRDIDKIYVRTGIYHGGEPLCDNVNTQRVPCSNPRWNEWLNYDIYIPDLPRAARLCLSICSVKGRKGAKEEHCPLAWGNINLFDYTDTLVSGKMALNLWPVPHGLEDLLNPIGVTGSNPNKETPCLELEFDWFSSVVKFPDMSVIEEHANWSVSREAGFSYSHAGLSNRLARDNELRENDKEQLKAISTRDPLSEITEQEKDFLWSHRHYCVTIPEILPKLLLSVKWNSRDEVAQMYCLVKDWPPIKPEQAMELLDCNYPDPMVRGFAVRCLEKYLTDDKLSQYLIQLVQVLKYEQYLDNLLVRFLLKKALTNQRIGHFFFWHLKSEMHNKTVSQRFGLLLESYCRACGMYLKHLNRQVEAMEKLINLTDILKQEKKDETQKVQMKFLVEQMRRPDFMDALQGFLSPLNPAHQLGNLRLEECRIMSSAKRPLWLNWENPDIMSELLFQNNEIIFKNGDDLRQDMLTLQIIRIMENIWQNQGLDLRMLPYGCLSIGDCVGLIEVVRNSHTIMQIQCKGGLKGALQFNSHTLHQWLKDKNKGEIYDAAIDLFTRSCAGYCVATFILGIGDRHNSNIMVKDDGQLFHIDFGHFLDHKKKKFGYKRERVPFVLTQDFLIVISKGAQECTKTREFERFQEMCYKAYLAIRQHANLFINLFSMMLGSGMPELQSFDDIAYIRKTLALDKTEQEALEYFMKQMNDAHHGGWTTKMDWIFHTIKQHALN

PI 3-kinase beta [2] = biological target: T2, PI 3-kinase beta (Homo sapiens, UniProt P42338); test: Kinase Glo Luminescent Kinase Assay (Kglo), assay B; type: biochemical; details: read-out: Assay B PI3Kβ IC50
Vps34 = Vps34 (Homo sapiens, UniProt Q8NEB9); test: Kinase Glo Luminescent Kinase Assay (Kglo), assay C; type: biochemical; details: read-out: Assay C VPS34 IC50
PI 4-kinase beta = PI 4-kinase beta (Homo sapiens, UniProt Q9UBF8); test: Kinase Glo Luminescent Kinase Assay (Kglo), assay D; type: biochemical; details: read-out: Assay D PI4Kβ IC50
PI 3-kinase gamma [3] = biological target: T3, PI 3-kinase gamma (Homo sapiens, UniProt P48736); test: TR-FRET Adapta assay, assay E; type: biochemical; details: read-out: Assay E PI3Kγ IC50
mTOR = mTOR (Homo sapiens, UniProt P42345); test: Lanthascreen kinase binding assay, assay G; details: read-out: Assay G mTOR IC50
Procedure: Lanthascreen™ Kinase Binding Assay for mTOR (G)
Binding of an inhibitor to the kinase competes for binding with the tracer, resulting in a loss of FRET.
50 nL of compound dilutions were dispensed onto white 384-well small volume polystyrene plate.

[4] = test system: IL-8-induced neutrophil shape change in human whole blood; test: Whole blood neutrophil shape change assay (L); type: cell-based; details: Homo sapiens, Neutrophil, IL-8, human whole blood, read-out: Assay L WBSC IC50
PI 3-kinase delta [5] = biological target: T4, PI 3-kinase delta (Homo sapiens, UniProt O00329); test: TR-FRET Adapta assay, assay F; details: read-out: Assay F PI3Kδ IC50
Target sequence in this assay (O00329 whole entry): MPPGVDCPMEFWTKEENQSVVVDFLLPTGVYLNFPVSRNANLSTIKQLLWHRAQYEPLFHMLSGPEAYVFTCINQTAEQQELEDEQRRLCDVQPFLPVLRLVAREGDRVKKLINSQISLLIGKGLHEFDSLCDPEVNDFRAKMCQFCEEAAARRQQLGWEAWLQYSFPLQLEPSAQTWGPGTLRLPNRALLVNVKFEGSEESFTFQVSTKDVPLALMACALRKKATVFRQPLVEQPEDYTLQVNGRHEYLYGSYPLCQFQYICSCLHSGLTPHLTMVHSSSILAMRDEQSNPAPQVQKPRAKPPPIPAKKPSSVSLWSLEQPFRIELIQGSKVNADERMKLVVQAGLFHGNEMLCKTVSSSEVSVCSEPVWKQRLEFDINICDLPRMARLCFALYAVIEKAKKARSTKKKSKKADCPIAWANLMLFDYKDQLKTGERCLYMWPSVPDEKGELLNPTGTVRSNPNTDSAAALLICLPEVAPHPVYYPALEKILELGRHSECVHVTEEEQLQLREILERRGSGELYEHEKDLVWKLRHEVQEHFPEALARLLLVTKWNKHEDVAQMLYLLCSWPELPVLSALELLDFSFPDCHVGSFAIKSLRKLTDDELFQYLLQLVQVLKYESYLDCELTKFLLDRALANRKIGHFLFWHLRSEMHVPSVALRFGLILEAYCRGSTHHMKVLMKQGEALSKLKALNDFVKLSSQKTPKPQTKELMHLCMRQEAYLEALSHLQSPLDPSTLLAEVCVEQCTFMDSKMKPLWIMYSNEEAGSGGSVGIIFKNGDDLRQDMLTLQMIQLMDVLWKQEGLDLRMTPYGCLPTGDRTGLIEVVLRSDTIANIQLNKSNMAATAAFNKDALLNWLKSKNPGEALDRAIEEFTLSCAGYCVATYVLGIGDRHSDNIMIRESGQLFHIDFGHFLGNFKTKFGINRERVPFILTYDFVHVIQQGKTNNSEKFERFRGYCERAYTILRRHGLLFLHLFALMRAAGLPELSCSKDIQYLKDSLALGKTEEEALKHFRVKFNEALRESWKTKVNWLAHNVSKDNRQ
Target sequence in this assay (P27986 461-568 partner): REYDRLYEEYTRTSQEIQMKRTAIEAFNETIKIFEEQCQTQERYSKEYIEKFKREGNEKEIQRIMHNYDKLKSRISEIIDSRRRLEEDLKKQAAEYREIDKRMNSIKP

PI 3-kinase alpha [6] = biological target: T1, PI 3-kinase alpha; test: Cellular assay H1, p-Akt (S473) in Rat-1 cells, Surefire format; type: cell-based; details: non-asterisked data: version H1 (Surefire format), Rat-1 cells; read-out: Assay H PI3Kα IC50
Target sequence in this assay (P42336 whole entry): as the sequence (P42336 whole entry) above
Target sequence in this assay (Q63787 whole entry partner): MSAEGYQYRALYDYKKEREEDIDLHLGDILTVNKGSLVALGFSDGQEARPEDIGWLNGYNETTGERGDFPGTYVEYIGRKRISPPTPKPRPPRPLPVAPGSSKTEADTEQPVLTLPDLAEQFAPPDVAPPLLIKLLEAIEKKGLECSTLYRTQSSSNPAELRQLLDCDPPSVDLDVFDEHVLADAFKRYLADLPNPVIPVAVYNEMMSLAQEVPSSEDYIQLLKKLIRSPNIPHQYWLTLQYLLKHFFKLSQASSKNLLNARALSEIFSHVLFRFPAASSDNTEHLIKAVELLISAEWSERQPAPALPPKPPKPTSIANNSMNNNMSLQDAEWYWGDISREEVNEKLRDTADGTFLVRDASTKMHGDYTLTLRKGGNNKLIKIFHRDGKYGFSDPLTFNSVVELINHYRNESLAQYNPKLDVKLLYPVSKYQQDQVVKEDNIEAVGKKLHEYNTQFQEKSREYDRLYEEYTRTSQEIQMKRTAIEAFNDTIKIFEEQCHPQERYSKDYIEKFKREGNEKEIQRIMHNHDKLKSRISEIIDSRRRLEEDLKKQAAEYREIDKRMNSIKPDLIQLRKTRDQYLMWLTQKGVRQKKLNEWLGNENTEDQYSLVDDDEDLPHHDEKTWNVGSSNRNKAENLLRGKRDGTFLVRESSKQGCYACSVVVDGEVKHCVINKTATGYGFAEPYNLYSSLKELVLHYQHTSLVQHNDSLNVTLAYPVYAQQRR

PI 3-kinase beta [7] = biological target: T2, PI 3-kinase beta; test: Cellular assay I1, p-Akt (S473) in Rat-1 cells, Surefire format; type: cell-based; details: non-asterisked data: version I1 (Surefire format), Rat-1 cells; read-out: Assay I PI3Kβ IC50
PI 3-kinase delta [8] = biological target: T4, PI 3-kinase delta; test: Cellular assay J1, p-Akt (S473) in Rat-1 cells, Surefire format; type: cell-based; details: non-asterisked data: version J1 (Surefire format), Rat-1 cells; read-out: Assay J PI3Kδ IC50
Target sequence in this assay (O00329 whole entry): as the sequence (O00329 whole entry) above
Target sequence in this assay (Q63787 whole entry partner): as the sequence (Q63787 whole entry partner) above

PI 3-kinase gamma [9] = biological target: T3, PI 3-kinase gamma; test: Cellular U937 AKT assay K1 (MSD); type: cell-based; details: U937 cells, K1 format; read-out: Assay K1 PI3Kγ IC50
[10] = Microsomal clearance assay (M); details: intrinsic clearance in rat liver microsomes
Procedure: The experiments were performed in 96-well glass plates at 37° C. on an automated Tecan EVO platform. Test compounds at a concentration of 10 mM in pure DMSO were diluted 1:1000 in water to 10 μM. […] Reactions were initiated by the addition of 150 μL of a cofactor solution containing 2 mM NADPH.

Vps34, sequence (Q8NEB9 whole entry, species assumed): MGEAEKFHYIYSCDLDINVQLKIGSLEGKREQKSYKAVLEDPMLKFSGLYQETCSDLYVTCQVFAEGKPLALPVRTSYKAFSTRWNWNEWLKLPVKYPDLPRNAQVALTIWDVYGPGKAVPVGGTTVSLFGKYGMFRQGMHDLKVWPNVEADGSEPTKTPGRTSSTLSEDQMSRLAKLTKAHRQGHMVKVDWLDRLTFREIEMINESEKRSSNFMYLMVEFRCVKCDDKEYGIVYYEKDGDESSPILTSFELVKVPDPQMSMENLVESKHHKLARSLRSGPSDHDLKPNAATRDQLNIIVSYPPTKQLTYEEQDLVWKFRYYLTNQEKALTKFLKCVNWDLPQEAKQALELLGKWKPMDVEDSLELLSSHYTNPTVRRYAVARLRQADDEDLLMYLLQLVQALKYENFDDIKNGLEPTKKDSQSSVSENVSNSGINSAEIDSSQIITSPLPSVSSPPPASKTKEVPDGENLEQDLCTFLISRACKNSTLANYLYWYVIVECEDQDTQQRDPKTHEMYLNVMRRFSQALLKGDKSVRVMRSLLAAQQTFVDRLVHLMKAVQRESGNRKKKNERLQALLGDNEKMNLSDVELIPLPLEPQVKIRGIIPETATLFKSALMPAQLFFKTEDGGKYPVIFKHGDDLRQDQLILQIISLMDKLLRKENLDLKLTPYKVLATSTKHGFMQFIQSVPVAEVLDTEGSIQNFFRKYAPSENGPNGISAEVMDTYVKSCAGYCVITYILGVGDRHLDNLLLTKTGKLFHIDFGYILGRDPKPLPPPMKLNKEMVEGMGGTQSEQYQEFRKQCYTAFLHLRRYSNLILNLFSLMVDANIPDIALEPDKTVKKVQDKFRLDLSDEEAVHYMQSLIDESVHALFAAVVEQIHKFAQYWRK
PI 4-kinase beta, sequence (Q9UBF8 whole entry): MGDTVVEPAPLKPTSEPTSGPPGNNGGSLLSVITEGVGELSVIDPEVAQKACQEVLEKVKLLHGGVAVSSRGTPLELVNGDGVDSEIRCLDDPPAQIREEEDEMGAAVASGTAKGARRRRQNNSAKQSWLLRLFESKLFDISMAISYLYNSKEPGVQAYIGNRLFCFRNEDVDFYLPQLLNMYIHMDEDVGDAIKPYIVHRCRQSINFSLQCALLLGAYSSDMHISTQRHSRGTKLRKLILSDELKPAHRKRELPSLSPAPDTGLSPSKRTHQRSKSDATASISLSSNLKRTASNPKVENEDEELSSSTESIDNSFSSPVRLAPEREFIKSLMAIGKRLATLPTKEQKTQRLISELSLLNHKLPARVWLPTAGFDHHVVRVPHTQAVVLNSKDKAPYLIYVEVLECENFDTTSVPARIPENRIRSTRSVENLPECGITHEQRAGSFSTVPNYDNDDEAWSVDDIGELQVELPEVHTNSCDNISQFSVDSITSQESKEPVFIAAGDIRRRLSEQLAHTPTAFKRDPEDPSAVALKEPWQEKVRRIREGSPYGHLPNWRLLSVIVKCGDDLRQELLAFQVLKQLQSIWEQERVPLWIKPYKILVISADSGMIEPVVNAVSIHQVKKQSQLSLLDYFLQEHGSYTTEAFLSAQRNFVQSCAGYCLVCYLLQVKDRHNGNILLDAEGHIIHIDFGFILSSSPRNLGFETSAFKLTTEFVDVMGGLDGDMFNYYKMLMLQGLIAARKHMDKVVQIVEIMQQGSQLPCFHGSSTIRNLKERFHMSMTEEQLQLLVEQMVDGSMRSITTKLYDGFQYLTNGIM

SMILES: Cc1ccc(S(=O)(=O)NCC(F)(F)F)cc1-c1cnc(N)c(-n2cncn2)n1 [Example 127, 3-(5-Amino-6-(1H-1,2,4-triazol-1-yl)pyrazin-2-yl)-4-methyl-N-(2,2,2-trifluoroethyl)benzenesulfonamide]
- IC50 (PI 3-kinase alpha [1]): 300 nM
- IC50 (PI 3-kinase beta [2]): 1100 nM
- IC50 (Vps34): > 10000 nM
- IC50 (PI 4-kinase beta): 4400 nM
- IC50 (PI 3-kinase gamma [3]): 24 nM
- IC50 (mTOR): 2600 nM
- IC50 [4]: 1500 nM
- IC50 (PI 3-kinase delta [5]): 880 nM

SMILES: Cc1ccc(S(=O)(=O)NC2CCC2)cc1-c1cnc(N)c(-n2cncn2)n1 [Example 127.54]
- IC50 (PI 3-kinase alpha [1]): 180 nM
- IC50 (PI 3-kinase beta [2]): 1100 nM
- IC50 (Vps34): > 10000 nM
- IC50 (PI 4-kinase beta): 2600 nM
- IC50 (PI 3-kinase gamma [3]): 32 nM
- IC50 (mTOR): 1800 nM
- IC50 [4]: > 100000 nM
- IC50 (PI 3-kinase delta [5]): 1100 nM

SMILES: Cc1ccc(S(=O)(=O)NCC2(O)CCC2)cc1-c1cnc(N)c(-n2cncn2)n1 [Example 127.16]
- IC50 (PI 3-kinase alpha [1]): 330 nM
- IC50 (PI 3-kinase beta [2]): 810 nM
- IC50 (Vps34): > 10000 nM
- IC50 (PI 4-kinase beta): 5000 nM
- IC50 (PI 3-kinase gamma [3]): 45 nM
- IC50 (mTOR): 8700 nM
- IC50 [4]: 1720 nM
- IC50 (PI 3-kinase delta [5]): 1100 nM

SMILES: Cc1ccc(S(=O)(=O)N[C@H](C#N)CO)cc1-c1cnc(N)c(-n2cncn2)n1 [Example 127.48]
- IC50 (PI 3-kinase alpha [1]): 1200 nM
- IC50 (PI 3-kinase beta [2]): 6200 nM
- IC50 (Vps34): > 10000 nM
- IC50 (PI 4-kinase beta): 5900 nM
- IC50 (PI 3-kinase gamma [3]): 60 nM
- IC50 [4]: 2490 nM
- IC50 (PI 3-kinase delta [5]): 3200 nM

SMILES: Cc1ccc(S(=O)(=O)NCCC(C)(C)O)cc1-c1cnc(N)c(-c2cnn(Cc3ccncc3)c2)n1 [Example 119.39]
- IC50 (PI 3-kinase alpha [1]): 100 nM
- IC50 (PI 3-kinase beta [2]): 2800 nM
- IC50 (Vps34): > 9100 nM
- IC50 (PI 4-kinase beta): 6500 nM
- IC50 (PI 3-kinase gamma [3]): 6 nM
- IC50 (mTOR): 6900 nM
- IC50 (PI 3-kinase alpha [6]): 5040 nM
- IC50 (PI 3-kinase beta [7]): 2150 nM
- IC50 (PI 3-kinase delta [8]): 1610 nM
- IC50 (PI 3-kinase gamma [9]): 34 nM
- IC50 (PI 3-kinase delta [5]): 40 nM
- Assay M RLM CI(int) [10]: 203 µL/min/mg

SMILES: Cc1cc(-c2nc(-c3cc(S(=O)(=O)N[C@H]4CC[C@@H](O)CC4)ccc3C)cnc2N)ccn1 [Example 76, 3-(5-Amino-6-(2-methylpyridin-4-yl)pyrazin-2-yl)-N-((1s,4s)-4-hydroxycyclohexyl)-4-methylbenzenesulfonamide]
- IC50 (PI 3-kinase alpha [1]): 180 nM
- IC50 (PI 3-kinase beta [2]): 3710 nM
- IC50 (Vps34): > 9100 nM
- IC50 (PI 4-kinase beta): 4470 nM
- IC50 (PI 3-kinase gamma [3]): 64 nM
- IC50 (mTOR): 4190 nM
- IC50 (PI 3-kinase alpha [6]): 3370 nM
- IC50 (PI 3-kinase beta [7]): > 10000 nM
- IC50 (PI 3-kinase delta [8]): 3520 nM
- IC50 (PI 3-kinase gamma [9]): 203 nM
- IC50 (PI 3-kinase delta [5]): 480 nM
- Assay M RLM CI(int) [10]: 48 µL/min/mg

SMILES: Cc1ccc(S(=O)(=O)NCCC(C)(C)O)cc1-c1cnc(N)c(-c2cnn(CCN3CCOCC3)c2)n1 [Example 119.41]
- IC50 (PI 3-kinase alpha [1]): 420 nM
- IC50 (PI 3-kinase beta [2]): 3250 nM
- IC50 (Vps34): > 10000 nM
- IC50 (PI 4-kinase beta): 6000 nM
- IC50 (PI 3-kinase gamma [3]): 25 nM
- IC50 (mTOR): > 10000 nM
- IC50 (PI 3-kinase alpha [6]): > 10000 nM
- IC50 (PI 3-kinase beta [7]): 3200 nM
- IC50 (PI 3-kinase delta [8]): 6490 nM
- IC50 (PI 3-kinase gamma [9]): 91 nM
- IC50 (PI 3-kinase delta [5]): 30 nM
- Assay M RLM CI(int) [10]: 73 µL/min/mg

SMILES: CCOc1ccc(-c2nc(-c3cc(S(=O)(=O)NCCC(C)(C)O)ccc3C)cnc2N)cn1 [Example 119.13]
- IC50 (PI 3-kinase alpha [1]): 580 nM
- IC50 (PI 3-kinase beta [2]): > 9100 nM
- IC50 (Vps34): > 9100 nM
- IC50 (PI 4-kinase beta): 4140 nM
- IC50 (PI 3-kinase gamma [3]): 98 nM
- IC50 (mTOR): > 9100 nM
- IC50 (PI 3-kinase alpha [6]): 2450 nM
- IC50 (PI 3-kinase beta [7]): 6750 nM
- IC50 (PI 3-kinase delta [8]): 3260 nM
- IC50 (PI 3-kinase gamma [9]): > 10000 nM
- IC50 (PI 3-kinase delta [5]): 450 nM
- Assay M RLM CI(int) [10]: 98 µL/min/mg

SMILES: Cc1cc(F)c(S(=O)(=O)NCCC(C)(C)O)cc1-c1cnc(N)c(-n2cncn2)n1 [Example 116, 5-(5-Amino-6-(1H-1,2,4-triazol-1-yl)pyrazin-2-yl)-2-fluoro-N-(3-hydroxy-3-methylbutyl)-4-methylbenzenesulfonamide]
- IC50 (PI 3-kinase alpha [1]): 1200 nM
- IC50 (PI 3-kinase beta [2]): > 9100 nM
- IC50 (Vps34): > 9100 nM
- IC50 (PI 4-kinase beta): 8100 nM
- IC50 (PI 3-kinase gamma [3]): 28 nM
- IC50 (mTOR): > 9100 nM
- IC50 (PI 3-kinase alpha [6]): 2310 nM
- IC50 (PI 3-kinase beta [7]): 4750 nM
- IC50 (PI 3-kinase delta [8]): 2120 nM
- IC50 (PI 3-kinase gamma [9]): 197 nM
- IC50 (PI 3-kinase delta [5]): 300 nM
- Assay M RLM CI(int) [10]: 35 µL/min/mg
